Assay results published in patent US11008346B2, “Beta-lactamase inhibitors” (priority 2014, dated 2021).
Where two headings read alike, the source gives them in different places.

Experiments:
[1] = test system: E. coli ESBL4 expressing CTX-M-15; assay: broth microdilution MIC, E. coli CTX-M-15; type: cell-based; details: Fixed CAZ (ceftazidime) 4 μg/mL
Outline: (§1)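 Visual MIC readout after 16-20 hours at 37° C, reflecting compound concentration that restores growth inhibition by a beta-lactam held constant at 4 μg/mL. Compound was titrated 2-fold, 32 to 0.25 μg/mL final, in cation-adjusted Mueller Hinton broth.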

[2] = test system: P. aeruginosa Ps296 expressing VIM-2; assay: broth microdilution MIC, P. aeruginosa VIM-2; type: cell-based; details: Fixed Mero (meropenem) 4 μg/mL
Description: (§2) To determine the ability of test compounds to potentiate the inhibition of the growth of bacterial strains that produce beta-lactamase enzymes, classic cell based broth microdilution MIC assays were employed. Six bacteria strains producing beta-lactamase enzymes were used: E. coli expressing the Class A Extended Spectrum Beta-Lactamase (ESBL) CTX-M-15, E. cloacae expressing the Class C P99, K. pneumoniae expressing the Class A carbapenemase KPC-3, P. aeruginosa expressing the Class B carbapenemase VIM-2, K pneumoniae expressing the class A carbapenemase KPC-2 and the class B carbapenemase VIM-4, and S. aureus producing the Class A penicillinase PC-1. The assay was conducted in Cation Adjusted Mueller Hinton Broth (CAMHB, BD #212322, BD Diagnostic Systems, Sparks, Md.). Bacteria strains were grown for 3-5 hours in CAMBH broth. Test compounds were added to a microtiter plate in 2-fold serial dilutions in CAMHB in a final concentration range of 32 μg/mL to 0.25 μg/ml. An overlay of CAMHB containing a Beta-lactam was added to the compounds at a final static concentration of 4 μg/ml. […] In addition to the titration of test compounds the MICs of a panel of control beta-lactams is also tested to ensure the strains are behaving consistently from test to test. Once the test compound and antibiotics are added the plates can be inoculated according to CLSI broth microdilution method. After inoculation the plates are incubated for 16-20 hours at 37° C., then the Minimal Inhibitory Concentration (MIC) of the test compound is determined visually.
(§3) Using the methodology described above, examples of the current invention were evaluated for their ability to inhibit the growth of β-lactamase-producing bacteria in the presence of a β-lactam antibiotic.
(§4) Representative results are shown in Table 4 where A represents an MIC of the fixed β-lactam antibiotic in the presence of >32 µg/mL of a β-lactamase inhibitor of exemplary compounds, B represents the MIC in the presence of between 8 and 32 µg/mL of a β-lactamase inhibitor of exemplary compounds, and C represents the MIC in the presence of ≤4 µg/mL of a β-lactamase inhibitor of exemplary compounds. NT=Not Tested.

[3] = test system: K. pneumoniae 156319 expressing KPC-3; assay: broth microdilution MIC, K. pneumoniae KPC-3; type: cell-based; details: Fixed Mero (meropenem) 4 μg/mL
Outline: as §1

[4] = test system: K. pneumoniae A-1797 expressing KPC-2 and VIM-4; assay: broth microdilution MIC, K. pneumoniae KPC-2 and VIM-4; type: cell-based; details: Fixed Mero (meropenem) 4 μg/mL
Outline: as §1

[5] = test system: S. aureus MSSA-7 producing penicillinase PC-1; assay: broth microdilution MIC, S. aureus PC-1; type: cell-based; details: for MIC of exemplary compounds in presence of fixed β-lactams, S. aureus MSSA-7 PC-1: Fixed Pip (piperacillin) 4 μg/mL
Description: as §2, §3, §4

KPC-2 β-lactamase = target: T1, KPC-2 β-lactamase (Klebsiella pneumoniae, UniProt Q9F663); assay: β-lactamase enzyme inhibition, KPC-2; type: biochemical
T1 construct: made in house; host or cells: E. coli BL21(DE3)
Outline: (§5)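 IC50 values reflect inhibitor concentrations halving the initial hydrolysis rate relative to uninhibited wells. Untagged recombinant enzymes were exposed to inhibitor at 37° C for 15 min before substrate addition: 100 μM nitrocefin for OXA-1 and p99 AmpC, imipenem for KPC-2, cefotaxime for SHV-5, each monitored spectrophotometrically for 10 min.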

p99 AmpC β-lactamase = target: T2, p99 AmpC β-lactamase (Enterobacter cloacae, UniProt P05364); assay: β-lactamase enzyme inhibition, p99 AmpC; type: biochemical
T2 construct: made in house; host or cells: E. coli BL21(DE3)
Outline: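 Native untagged E. cloacae p99 AmpC was expressed in E. coli BL21(DE3) and purified by cation exchange and gel filtration. Enzyme was preincubated with inhibitor at 37°C for 15 min.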

SHV-5 β-lactamase = target: T3, SHV-5 β-lactamase (Klebsiella pneumoniae, UniProt P0A3M1); assay: β-lactamase enzyme inhibition, SHV-5; type: biochemical
T3 construct: made in house; host or cells: E. coli BL21(DE3)
Outline: as §5

[6] = test system: E. cloacae 144200 expressing Class C P99 AmpC; assay: broth microdilution MIC, E. cloacae P99; type: cell-based; details: Fixed CAZ (ceftazidime) 4 μg/mL
Outline: as §1

OXA-1 β-lactamase = target: T4, OXA-1 β-lactamase (Escherichia coli, UniProt P13661); assay: β-lactamase enzyme inhibition, OXA-1; type: biochemical; details: Nitrocefin 100 μM, 486 nm; 15 min at 37° C. preincubation; read-out: IC50 OXA-1 (Class D)
T4 construct: made in house; host or cells: E. coli BL21(DE3)
Outline: as §5

[7] = target: T5, VIM-2 metallo β-lactamase (Pseudomonas aeruginosa, UniProt Q9K2N0); assay: β-lactamase enzyme inhibition, VIM-2; type: biochemical; details: Nitrocefin 100 μM, 486 nm; 15 min at 37° C. preincubation; read-out: IC50 VIM-2 (Class B)
T5 construct: made in house; host or cells: E. coli BL21(DE3)
Outline: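 VIM-2 purified by Q sepharose anion exchange (50 mM Hepes pH 7.5, 0-600 mM NaCl gradient, two runs, >90% purity). Enzyme preincubated with inhibitor 15 min at 37° C; nitrocefin 100 μM final, absorbance at 486 nm followed 10 min. IC50 from initial hydrolysis rates versus inhibitor-free controls.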

[8] = imipenem substrate, 300 nm, 15 min at 37° C. preincubation, read-out: IC50 KPC-2 (Class A)

T1 sequence (Q9F663 25-293, looked up): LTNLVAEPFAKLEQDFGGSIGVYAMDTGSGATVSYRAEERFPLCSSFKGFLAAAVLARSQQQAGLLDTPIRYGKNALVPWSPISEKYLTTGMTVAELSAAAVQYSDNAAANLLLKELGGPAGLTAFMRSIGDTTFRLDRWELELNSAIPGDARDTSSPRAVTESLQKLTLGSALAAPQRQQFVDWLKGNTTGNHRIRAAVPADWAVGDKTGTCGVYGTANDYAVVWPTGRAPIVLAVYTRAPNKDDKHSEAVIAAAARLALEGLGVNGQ
T4 sequence (P13661 26-276): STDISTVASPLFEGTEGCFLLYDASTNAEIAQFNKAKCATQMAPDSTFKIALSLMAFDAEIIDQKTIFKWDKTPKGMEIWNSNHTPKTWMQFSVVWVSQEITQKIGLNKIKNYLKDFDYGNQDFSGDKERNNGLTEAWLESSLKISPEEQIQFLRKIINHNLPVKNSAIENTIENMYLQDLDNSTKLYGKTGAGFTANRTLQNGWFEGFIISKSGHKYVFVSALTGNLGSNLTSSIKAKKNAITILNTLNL
T3 sequence (P0A3M1 22-286): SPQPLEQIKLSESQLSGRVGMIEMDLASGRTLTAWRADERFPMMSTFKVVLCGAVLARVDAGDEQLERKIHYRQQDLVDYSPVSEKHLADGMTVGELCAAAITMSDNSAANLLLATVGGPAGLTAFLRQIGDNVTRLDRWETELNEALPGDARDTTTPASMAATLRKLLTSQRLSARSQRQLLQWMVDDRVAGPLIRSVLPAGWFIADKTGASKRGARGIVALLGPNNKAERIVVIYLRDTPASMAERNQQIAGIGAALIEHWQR
T2 sequence (P05364 21-381): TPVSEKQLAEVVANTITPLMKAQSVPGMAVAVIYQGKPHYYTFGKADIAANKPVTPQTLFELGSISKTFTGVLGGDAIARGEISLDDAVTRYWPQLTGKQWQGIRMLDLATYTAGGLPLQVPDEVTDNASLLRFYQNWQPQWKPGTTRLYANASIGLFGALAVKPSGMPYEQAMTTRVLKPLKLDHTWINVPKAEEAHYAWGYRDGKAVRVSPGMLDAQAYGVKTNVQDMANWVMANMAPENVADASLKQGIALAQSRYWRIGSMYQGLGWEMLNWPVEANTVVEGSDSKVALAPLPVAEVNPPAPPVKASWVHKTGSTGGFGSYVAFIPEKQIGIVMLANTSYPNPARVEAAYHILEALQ

SMILES	MIC of exemplary compounds in presence of fixed β-lactams, E. coli ESBL4 CTX-M-15 [1]	MIC of exemplary compounds in presence of fixed β-lactams, P. aerug. Ps296 VIM-2 [2]	MIC of exemplary compounds in presence of fixed β-lactams, K.P. 156319 KPC-3 [3]	MIC of exemplary compounds in presence of fixed β-lactams, K.P. A-1797 KPC-2 VIM-4 [4]	MIC of exemplary compounds in presence of fixed β-lactams, S. aureus MSSA-7 PC-1 [5]	IC50 (KPC-2 β-lactamase)	IC50 (p99 AmpC β-lactamase)	IC50 (SHV-5 β-lactamase)	MIC of exemplary compounds in presence of fixed β-lactams, E. cl. 144200 p99 AmpC [6]	IC50 (OXA-1 β-lactamase)	IC50 [7]	IC50 (KPC-2 β-lactamase; [8])	MIC alone ([5]; partner antibiotic alone, S. aureus producing PC-1)
CCCC(=O)N[C@H]1Cc2cccc(C(=O)O)c2OB1O [Example 1, (R)-3-Butyrylamino-2-hydroxy-3,4-dihydro-2H-benzo[e][1,2]oxaborinine-8-carboxylic acid]	C (C represents the MIC in the presence of ≤4 g/mL of a β-lactamase inhibitor)	A (A represents an MIC of the fixed β-lactam antibiotic in the presence of >32 g/mL of a β-lactamase inhibitor)	C (C represents the MIC in the presence of ≤4 g/mL of a β-lactamase inhibitor)	A (A represents an MIC of the fixed β-lactam antibiotic in the presence of >32 g/mL of a β-lactamase inhibitor)	C (C represents the MIC in the presence of ≤4 g/mL of a β-lactamase inhibitor)	< 100 nM	< 100 nM	< 100 nM	C (C represents the MIC in the presence of ≤4 g/mL of a β-lactamase inhibitor)	< 100 nM	1000 to 10000 nM	–	–
N#CCC(=O)N[C@H]1Cc2cccc(C(=O)O)c2OB1O [Example 2, (R)-3-(2-Cyano-acetylamino)-2-hydroxy-3,4-dihydro-2H-benzo[e] [1,2]oxaborinine-8-carboxylic acid]	C (C represents the MIC in the presence of ≤4 g/mL of a β-lactamase inhibitor)	B (B represents the MIC in the presence of between 8 and 32 g/mL of a β-lactamase inhibitor)	C (C represents the MIC in the presence of ≤4 g/mL of a β-lactamase inhibitor)	C (C represents the MIC in the presence of ≤4 g/mL of a β-lactamase inhibitor)	C (C represents the MIC in the presence of ≤4 g/mL of a β-lactamase inhibitor)	–	< 100 nM	< 100 nM	C (C represents the MIC in the presence of ≤4 g/mL of a β-lactamase inhibitor)	< 100 nM	1000 to 10000 nM	100 to 1000 nM	–
CC(O)(O)C(=O)N[C@H]1Cc2cccc(C(=O)O)c2OB1O [Example 3, (R)-3-(2,2-Dihydroxy-propionylamino)-2-hydroxy-3,4-dihydro-2H-benzo[e][1,2]oxaborinine-8-carboxylic acid]	C (C represents the MIC in the presence of ≤4 g/mL of a β-lactamase inhibitor)	C (C represents the MIC in the presence of ≤4 g/mL of a β-lactamase inhibitor)	C (C represents the MIC in the presence of ≤4 g/mL of a β-lactamase inhibitor)	A (A represents an MIC of the fixed β-lactam antibiotic in the presence of >32 g/mL of a β-lactamase inhibitor)	C (C represents the MIC in the presence of ≤4 g/mL of a β-lactamase inhibitor)	–	< 100 nM	100 to 1000 nM	C (C represents the MIC in the presence of ≤4 g/mL of a β-lactamase inhibitor)	< 100 nM	1000 to 10000 nM	100 to 1000 nM	–
O=C(CC(F)(F)F)N[C@H]1Cc2cccc(C(=O)O)c2OB1O [Example 4, (R)-2-Hydroxy-3-(3,3,3-trifluoro-propionylamino)-3,4-dihydro-2H-benzo[e][1,2]oxaborinine-8-carboxylic acid]	C (C represents the MIC in the presence of ≤4 g/mL of a β-lactamase inhibitor)	C (C represents the MIC in the presence of ≤4 g/mL of a β-lactamase inhibitor)	C (C represents the MIC in the presence of ≤4 g/mL of a β-lactamase inhibitor)	B (B represents the MIC in the presence of between 8 and 32 g/mL of a β-lactamase inhibitor)	C (C represents the MIC in the presence of ≤4 g/mL of a β-lactamase inhibitor)	–	< 100 nM	< 100 nM	C (C represents the MIC in the presence of ≤4 g/mL of a β-lactamase inhibitor)	< 100 nM	1000 to 10000 nM	100 to 1000 nM	–
CCC(=O)N[C@H]1Cc2cccc(C(=O)O)c2OB1O [Example 62, (R)-2-Hydroxy-3-propionylamino-3,4-dihydro-2H-benzo[e][1,2]oxaborinine-8-carboxylic acid]	C (C represents the MIC in the presence of ≤4 g/mL of a β-lactamase inhibitor)	B (B represents the MIC in the presence of between 8 and 32 g/mL of a β-lactamase inhibitor)	C (C represents the MIC in the presence of ≤4 g/mL of a β-lactamase inhibitor)	B (B represents the MIC in the presence of between 8 and 32 g/mL of a β-lactamase inhibitor)	C (C represents the MIC in the presence of ≤4 g/mL of a β-lactamase inhibitor)	< 100 nM	–	100 to 1000 nM	C (C represents the MIC in the presence of ≤4 g/mL of a β-lactamase inhibitor)	< 100 nM	1000 to 10000 nM	–	–
CCN1CCN(C(=O)N[C@@H](C(=O)N[C@@H]2C(=O)N3[C@@H]2SC(C)(C)[C@@H]3C(=O)O)c2ccccc2)C(=O)C1=O [Piperacillin, piperacillin, reference compound]	–	–	–	–	–	–	–	–	–	–	–	–	64 µg/mL
